The structures appear in SMILES notation.

For one experiment, the target named is mTORC1 (Homo sapiens, UniProt P42345). The experiment can be described thus: Inhibition of mTORC1 in human PC3 cells assessed as reduction of phosphorylated 4E-BP1Thr37/46 level after 90 mins by HTRF assay. Type of experiment: cell-based, PC-3.
A short description of experiment [1]: Inhibition of mTORC2 in human PC3 cells assessed as reduction of phosphorylated AKT Ser473 level after 90 mins by HTRF assay. Type of experiment: cell-based. To be noted: PC-3, 1.5 h.

`Nc1nc([C@@H]2C[C@H]3CC[C@@H](C2)N3C(=O)c2nnc[nH]2)cn2c(-c3cnn(-c4ccccc4)c3)cnc12`: the half-inhibitory concentration (IC50) was found to be 1860 nM at mTORC1 and 1140 nM in experiment [1].

As for `Nc1nc([C@@H]2C[C@H]3CC[C@@H](C2)N3C(=O)c2nnc[nH]2)cn2c(-c3ccc(-c4ccccc4)nc3)cnc12`, the IC50 on mTORC1 was determined as 100 nM; in experiment [1], 1 nM.

Take `Nc1nc([C@@H]2C[C@H]3CC[C@@H](C2)N3C(=O)c2nnc[nH]2)cn2c(-c3ccc(-c4ncc[nH]4)nc3)cnc12`: the IC50 (at mTORC1; in experiment [1]) was more than 10000 nM throughout.

For the molecule `Cn1ccc(-c2ccc(-c3cnc4c(N)nc([C@@H]5C[C@H]6CC[C@@H](C5)N6C(=O)c5nnc[nH]5)cn34)cn2)n1`, the IC50 (on mTORC1; in experiment [1]) was 1000 nM each time.

Turning to `Nc1nc([C@@H]2C[C@H]3CC[C@@H](C2)N3C(=O)CO)cn2c(-c3ccc(-c4ccccc4)nc3)cnc12`, the IC50 (at mTORC1; in experiment [1]) was 100 nM each time.

The record behind these values is ChEMBL document CHEMBL2385056, “Imidazopyrazine Derivatives As Inhibitors of mTOR” (ACS Med Chem Lett, 2013).
